Results reported in US20240124442A1, “TRICYCLIC-AMIDO-BICYCLIC PRMT5 INHIBITORS” (AMGEN INC., priority 2021, published 2024).

What was measured:
HCT116 MTAP null cells = experiment: HCT116 MTAP null cell line proliferation / cell viability (CellTiter-Glo, 6 days); format: cell-based; conditions: 144 h; HCT116 MTAP null cells, 6 days treatment, CellTiter-Glo cell viability; read-out: HCT-116 MTAP null IC50
In short: (§1)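 WT vs MTAP-null HCT116, 6 d drug, CTG readout. 1:3 × 8–9 pts (top 1/10 μM) or 1:2 × 22 pts (top 10/50 μM). IC50 by 4PL or Hill −1 fit.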

HCT116 WT cells = experiment: HCT116 WT (parent) cell line proliferation / cell viability (CellTiter-Glo, 6 days); format: cell-based; conditions: Homo sapiens, HCT-116, 144 h, 6 days treatment
In short: as §1

SMILES	IC50 (HCT116 MTAP null cells) [nM]	IC50 (HCT116 WT cells) [nM]
CN(C(=O)c1ccc2nc(N)c3cnn(C)c3c2c1)[C@@H]1COc2cc(-c3ccc(F)nc3)ccc21 [Example 638, 4-amino-N-((3S)-6-(6-fluoro-3-pyridinyl)-2,3-dihydro-1-benzofuran-3-yl)-N,1-dimethyl-1H-pyrazolo[4,3-c]quinoline-8-carboxamide]	6	591
CN(C(=O)c1ccc2nc(N)c3cnn(C)c3c2c1)[C@H]1COc2cc(S(F)(F)(F)(F)F)ccc21 (single isomer, unassigned) [Example 367]	485	5270
CCOc1ncc2c(n1)COC[C@H]2N(C)C(=O)c1ccc2nc(N)c3cnn(C)c3c2c1 [Example 285, 4-amino-N-((5S)-2-ethoxy-5,8-dihydro-6H-pyrano[3,4-d]-pyrimidin-5-yl)-N,1-dimethyl-1H-pyrazolo[4,3-c]quinoline-8-carboxamide]	974	31300
CN(C(=O)c1ccc2nc(N)c3cnn(C)c3c2c1)[C@@H]1CCc2cc(-c3cnn(C)c3)ccc21 (single isomer, unassigned) [Example 623]	64	3490
CN(C(=O)c1cc2c(cc1F)nc(N)c1cnn(C)c12)[C@@H]1CCc2nc(C(F)(F)F)ccc21 (single isomer, unassigned) [Example 375]	9	568
CC(C)CN(C(=O)c1ccc2nc(N)c3cnn(C)c3c2c1)[C@@H]1COCc2nc(C(F)(F)F)ccc21 [Example 504, 4-amino-1-methyl-N-(2-methylpropyl)-N-((5S)-2-(trifluoromethyl)-5,8-dihydro-6H-pyrano[3,4-b]pyridin-5-yl)-1H-pyrazolo[4,3-c]quinoline-8-carboxamide]	4	144
CN(C(=O)c1ccc2nc(N)c3cnn(C)c3c2c1)[C@@H]1COc2cc(-c3cscn3)ccc21 [Example 635, 4-amino-N,1-dimethyl-N-((3S)-6-(1,3-thiazol-4-yl)-2,3-dihydro-1-benzofuran-3-yl)-1H-pyrazolo[4,3-c]quinoline-8-carboxamide]	9	613
CN(C(=O)c1ccc2nc(N)c3cnn(C)c3c2c1)[C@@H]1COc2cc(-c3ccc4c(c3)OC(F)(F)O4)ccc21 [Example 657, 4-amino-N-((3S)-6-(2,2-difluoro-1,3-benzodioxol-5-yl)-2,3-dihydro-1-benzofuran-3-yl)-N,1-dimethyl-1H-pyrazolo[4,3-c]quinoline-8-carboxamide]	37	1710
CN(C(=O)c1ccc2nc(N)c3cnn(C)c3c2c1)[C@H]1COCc2nc(Br)ccc21 (single isomer, unassigned) [Example 419]	545	26400
CN(C(=O)c1cc2c(cc1F)nc(N)c1c2cnn1C)C1COc2cc(C#N)ccc21 (racemic) [Example 482, 4-amino-N-((3R)-6-cyano-2,3-dihydro-1-benzofuran-3-yl)-7-fluoro-N,3-dimethyl-3H-pyrazolo[3,4-c]quinoline-8-carboxamide and 4-amino-N-((3S)-6-cyano-2,3-dihydro-1-benzofuran-3-yl)-7-fluoro-N,3-dimethyl-3H-pyrazolo[3,4-c]quinoline-8-carboxamide]	166	17500
CN(C(=O)c1ccc2nc(N)c3cnn(C)c3c2c1)[C@@H]1COc2cc(-c3csc(C(F)(F)F)n3)ccc21 [Example 655, 4-amino-N,1-dimethyl-N-((3S)-6-(2-(trifluoromethyl)-1,3-thiazol-4-yl)-2,3-dihydro-1-benzofuran-3-yl)-1H-pyrazolo[4,3-c]quinoline-8-carboxamide]	28	946
CN(C(=O)c1ccc2nc(N)c3cnn(C)c3c2c1)[C@@H]1COc2cc(-c3ccn(C)n3)ccc21 [Example 631, 4-amino-N,1-dimethyl-N-((3S)-6-(1-methyl-1H-pyrazol-3-yl)-2,3-dihydro-1-benzofuran-3-yl)-1H-pyrazolo[4,3-c]quinoline-8-carboxamide]	23	2530
CN(C(=O)c1cc2c(cc1F)nc(N)c1cnn(C)c12)[C@@H]1COc2cc(C#N)ccc21 (single isomer, unassigned) [Example 373]	4	235
CN(C(=O)c1ccc2nc(N)c3cnn(C)c3c2c1)[C@@H]1CCc2nc(Br)ccc21 (single isomer, unassigned) [Example 370]	29	1800

More lines, now with the values ahead:

IC50 (HCT116 MTAP null cells) [nM]	IC50 (HCT116 WT cells) [nM]	SMILES
1280	41400	CN(C(=O)c1cc2c3c(c(N)nc2cc1Cl)COC3)[C@H]1CCc2nc(C(F)(F)F)ccc21 (single isomer, unassigned) [Example 559]
237	11700	CN(C(=O)c1cc2c3c(c(N)nc2cc1F)COC3)[C@@H]1COc2cc(S(C)(=N)=O)ccc21 (stereo partly drawn) [Example 462, 4-amino-7-fluoro-N-methyl-N-((3S)-6-(S-methylsulfonimidoyl)-2,3-dihydro-1-benzofuran-3-yl)-1,3-dihydrofuro[3,4-c]quinoline-8-carboxamide]
10	114	CCN(C(=O)c1cc2c(cn1)nc(N)c1cnn(C)c12)[C@@H]1COc2cc(C(F)(F)F)ccc21 (single isomer, unassigned) [Example 372]
27	256	C[C@H]1OCc2c1c(N)nc1cc(F)c(C(=O)N(C3CCC3)[C@@H]3COc4cc(C(F)(F)F)ccc43)cc21 [Example 470, (3R)-4-amino-N-cyclobutyl-7-fluoro-3-methyl-N-((3S)-6-(trifluoromethyl)-2,3-dihydro-1-benzofuran-3-yl)-1,3-dihydrofuro[3,4-c]quinoline-8-carboxamide]
2730	19700	CC(C)N(C(=O)c1cc2c3c(c(N)nc2cc1F)[C@@H](C)OC3)[C@H]1COc2cc(C(F)(F)F)ccc21 [Example 469, (3R)-4-amino-7-fluoro-3-methyl-N-(2-propanyl)-N-((3R)-6-(trifluoromethyl)-2,3-dihydro-1-benzofuran-3-yl)-1,3-dihydrofuro[3,4-c]quinoline-8-carboxamide]
26	1040	CN(C(=O)c1ccc2nc(N)c3c(c2c1)COC3)[C@@H]1COCc2cc(Br)ccc21 (single isomer, unassigned) [Example 608]
158	13400	CN(C(=O)c1cc2c(cc1F)nc(N)c1cnn(C)c12)[C@@H]1COCc2c(F)cncc21 (single isomer, unassigned) [Example 425]
48	4590	CN(C(=O)c1ccc2nc(N)c3c(cnn3C)c2c1)[C@@H]1COCc2cc(C(F)(F)F)ccc21 [Example 510, 4-amino-N,3-dimethyl-N-((4S)-7-(trifluoromethyl)-3,4-dihydro-1H-2-benzopyran-4-yl)-3H-pyrazolo[3,4-c]quinoline-8-carboxamide]
313	9870	CN(C(=O)c1cc2c3c(c(N)nc2cc1Cl)COC3)[C@H]1COc2cc(C(F)(F)F)cc(F)c21 (single isomer, unassigned) [Example 567]
842	24100	CN=S(C)(=O)c1ccc2c(c1)OC[C@H]2N(C)C(=O)c1cc2c3c(c(N)nc2cn1)COC3 (mixture of isomers) [Example 456, 4-amino-N-((3S)-6-((R)-N,S-dimethylsulfonimidoyl)-2,3-dihydro-1-benzofuran-3-yl)-N-methyl-1,3-dihydrofuro[3,4-c][1,7]naphthyridine-8-carboxamide and 4-amino-N-((3S)-6-((S)-N,S-dimethylsulfonimidoyl)-2,3-dihydro-1-benzofuran-3-yl)-N-methyl-1,3-dihydrofuro[3,4-c][1,7]naphthyridine-8-carboxamide]
65	1950	Cc1n[nH]c2c1c(N)nc1ccc(C(=O)N(C)[C@@H]3COc4cc(C(F)(F)F)ccc43)cc12 [Example 262, 4-amino-N,3-dimethyl-N-((3S)-6-(trifluoromethyl)-2,3-dihydro-1-benzofuran-3-yl)-1H-pyrazolo[4,3-c]quinoline-8-carboxamide]
29	1340	CN(C(=O)c1cc2c3c(c(N)nc2cc1Cl)COC3)[C@@H]1COc2cc(C(F)(F)F)ncc21 (single isomer, unassigned) [Example 361]
2510	40200	CN(C(=O)c1ccc2nc(N)c3c(c2c1)COC3)[C@H]1COc2nc(C(F)(F)F)ccc21 (single isomer, unassigned) [Example 530]
17	2500	CN(C(=O)c1ccc2nc(N)c3cnn(C)c3c2c1)[C@@H]1CCc2nc(C(F)(F)F)ccc21 (single isomer, unassigned) [Example 363]
21	881	C[C@H]1OCc2c1c(N)nc1ccc(C(=O)N(C)[C@@H]3COc4cc(C(F)(F)F)ccc43)cc21 (single isomer, unassigned) [Example 537]
790	17900	CCN(C(=O)c1ccc2nc(N)c3c(c2c1)COC3)[C@H]1COCc2cc(Br)ccc21 (single isomer, unassigned) [Example 581]
858	15000	CN(C(=O)c1cc2c3c(c(N)nc2cc1Cl)COC3)[C@H]1COc2cc(S(C)(=O)=O)ccc21 (single isomer, unassigned) [Example 565]
33	1030	CN(C(=O)c1cc2c3c(c(N)nc2cn1)COC3)[C@@H]1COCc2cc(C(F)(F)F)ccc21 [Example 490, 4-amino-N-methyl-N-((4S)-7-(trifluoromethyl)-3,4-dihydro-1H-2-benzopyran-4-yl)-1,3-dihydrofuro[3,4-c][1,7]naphthyridine-8-carboxamide]
22	1100	CN(C(=O)c1cc2c3c(c(N)nc2cc1F)COC3)[C@@H]1COCc2cc(-c3ccc(C(F)(F)F)cc3)ccc21 (single isomer, unassigned) [Example 666]
